Measurements from US20190070170A1, “METHOD OF S[…]-1” (Macau University of Science and Technology, priority 2017, published 2019).

System: TXA2
Assay: TXA2 level in culture supernatants of LPS-activated rat peritoneal macrophages (ELISA)
Assay type: cell-based
Details: LPS-stimulated rat peritoneal macrophages, culture supernatant
Description: Sprague-Dawley (SD) rats from the University of Hong Kong were housed in cages with free access to food and water. Peritoneal macrophages of SD rats were isolated as described in Liu J. et al., Pharmacological research 2016, 111:303-315. Briefly, untreated rats were sacrificed and after laparotomy, about 50 ml cold sterile Hank's balanced salt solution (HBSS) was used to lavage the peritoneal cavity at twice, and then the peritoneal lavage fluid was collected and centrifuged at 1500 rpm for 10 min. The cell pellets was suspended at a density 1.5×10^6 cells/ml in pre-hearted DMEM medium with 10% heat-inactivated FBS, penicillin G (100 units/ml), streptomycin ([…]), and L-glutamine (2 mM), followed by seeding in 6-well plates at a density of 4.5×10^6 cells and incubation for 2 h. Then the medium were discarded to remove the non-adherent cells. The adherent cells were further washed for two times with pre-heated DMEM medium to remove floating cells. Next, cells were pre-treated with various concentration of SIN for 1 h, followed by stimulation with LPS (1 μg/ml).
RAW264.7 cells and rat peritoneal macrophages were seeded in a 96-well plate at density of 1.4×10^4 and 1.5×10^5 cells, respectively. […] The optical density was measured at 570 nm against a reference wavelength of 650 nm using a microplate UV/VIS spectrophotometer (Tecan, Mannedorf, Switzerland). […]

In the case of `COC1=C[C@@H]2[C@@H]3Cc4ccc(OC)c(O)c4[C@]2(CCN3C)CC1=O` [SIN, sinomenine], the “level of TXA2” value is reported as “no significant influence”.
